Like-named read-outs stand apart in the source and are kept apart here. Blank lines part the entries; values can stand above or below the molecule they belong to.
What was measured:
human platelets [1] = test: ADP-induced aggregation of human platelets; type: cell-based; details: for inhibition of ADP induced human platelet aggregation: moderate antiaggregating activity
Method: 1,3Dinitroglycerol ester of prostaglandin D2 inhibited aggregation of human platelets induced by ADP ([…]) in dose 0.1 mg/ml of plasma on 50%.

isolated rat aorta [2] = test: Stability of ethanolic solution of NITROPROSTON (relaxation of isolated rat aorta contracted with adrenaline after storage); type: cell-based; details: read-out: Relaxation of isolated rat aorta contracted with adrenaline, ED5O
Excerpt: Stability of ethanolic solution of NITROPROSTON.
Relaxation of isolated rat aorta
months contracted with adrenaline, ED5O, M*10^-6

rat and rabbit tissues = test: Hypertensive activity in experiments with rat and rabbit tissues; details: relative to parent PGE2
GUINEA PIG TRACHEA = test: Isolated guinea pig trachea relaxation / contraction; type: cell-based; details: for EC50: Cavia porcellus
[3] = test system: rats with experimental hypercholesterolaemia; test: Lipid spectrum of serum of rats with experimental hypercholesterolaemia; type: in vivo, rat; details: 15 μg/kg intraperitoneally, 6 times per week, one month
Method: Lipids and lipid fractions in sera of rats with experimental hypercholesterolaemea were determined after one month of animal development with indicated drugs in a dose 15 μg/kg body weight intraperitoneally. 6 times per week. Rats not developed by drugs served as a control group.

[4] = test system: volunteers and patients with bronchus obstruction; test: Bronchodilation in volunteers and patients with bronchus obstruction; type: in vivo, human; details: given as a spray (5-7×10^-3 mg per dose)
Excerpt: This raises the possibility of using NITROPROSTON to treat bronchospasms.

mice [5] = test: Mice survival under toxic concentration of CO; type: in vivo
Excerpt: (§1) NITROPROSTON protected laboratory animals from a variety of noxious factors. It increased the survival of mice in an atmosphere with elevated CO or NO2 concentration: survival in the experimental group was 1.5-4 times higher than in the control group.
(§2) INFLUENCE OF NITROPROSTON ON MICE SURVIVAL
(§3) TOXIC CONCENTRATION OF CO OR NO2

mice [6] = test: Mice survival under toxic concentration of NO2; type: in vivo; details: NO2 (700 mg/m^3); 1 mg/kg; control 17
Excerpt: as §1, §2, §3

mice [7] = test: Toxicity in mice; type: in vivo
RAT STOMACH = test: Rat stomach contraction; type: cell-based; details: for EC50: Rattus norvegicus
isolated rat aorta [8] = test: Isolated rat aorta relaxation / contraction; type: cell-based; details: for EC50: Rattus norvegicus; for effect on isolated rat aorta: result in words
[9] = test system: rats with experimental hypercholesterolaemia; test: Peroxidation of serum or tissue lipids (MDA) of rats with experimental hypercholesterolaemia; type: in vivo, rat; details: 15 μg/kg intraperitoneally, 6 times per week, one month
Method: MDA contents as a parameter of lipid peroxidation were estimated after one month of animal development with indicated drugs in a dose 15 μg/kg body weight intraperitoneally, 6 times per week. Rats not developed by drugs served as a control.

heart rate = test: Heart rate and tachyphylaxis in experimental animals; type: in vivo
RAT UTERUS = test: Rat uterus contraction; type: cell-based; details: for EC50: Rattus norvegicus
mice [10] = test: Mice survival under conditions of hypobaric hypoxia; type: in vivo; details: Hypobary (9000 m); 1 mg/kg; control 18.5
Excerpt: as §2
UNDER CONDITIONS OF HYPOBARIC HYPOXIA AND

RAT COLON = test: Rat colon contraction; type: cell-based; details: for EC50: Rattus norvegicus
human platelets [11] = details: parent compound, no own test described; cited from earlier work
[12] = read-out: GUINEA PIG TRACHEA relaxation, EC50
[13] = read-out: ISOLATED RAT AORTA relaxation, EC50
[14] = relaxation, read-out: vasodilating effect on the isolated rat aorta, EC50
[15] = read-out: RAT UTERUS, contraction, EC50
[16] = contraction, read-out: stimulating rat uterine contractions, EC50
[17] = compared with prostaglandin F2α

Compound: CCCCC/C=C\C/C=C\C/C=C\C/C=C\CCCC(=O)OC(CO[N+](=O)[O-])CO[N+](=O)[O-] [1,3-dinitroglycerol ester of arachidonic acid]
- inhibition of aggregation of human platelets induced by ADP (human platelets [1]; ADP (1×10^-5), dose 0.1 mg/ml of plasma): almost completely inhibited

Compound: CCCCC[C@H](O)/C=C/[C@H]1[C@H](O)CC(=O)[C@@H]1C/C=C\CCCC(=O)OC(CO[N+](=O)[O-])CO[N+](=O)[O-] [NITROPROSTON, 1,3-dinitroglycerol ester of prostaglandin E2]
- EC50 (isolated rat aorta [2]; time of storage 1 month): 1.54 ± 0.21 µM
- EC50 (isolated rat aorta [2]; time of storage 12 months): 1.77 ± 0.148 µM
- hypertensive activity, times higher than that of the parent PGE2 (rat and rabbit tissues): 5 times
- EC50 (GUINEA PIG TRACHEA; [12]): 0.007 µM
- EC50 (GUINEA PIG TRACHEA; relaxation, read-out: bronchodilating activity, EC50 in isolated guinea pig trachea): 0.00718 µM
- HDL cholesterol (HDLC), changes of the contents (%, relative to control) [3]: 123%
- HDLC/TSC, changes (%, relative to control) [3]: 128%
- LDL cholesterol, changes of the contents (%, relative to control) [3]: 57%
- Total lipids, changes of the contents (%, relative to control) [3]: 67%
- Total serum cholesterol (TSC), changes of the contents (%, relative to control) [3]: 95%
- Triglicerides, changes of the contents (%, relative to control) [3]: 95%
- bronchodilation in volunteers and patients with bronchus obstruction [4]: potent, effective bronchodilator
- Survival, % (mice [5]; CO (11 g/m^3), 1 mg/kg, control 41): 66%
- survival in the experimental group, times higher than in the control group (mice [5]; mice, atmosphere with elevated CO or NO2 concentration): 1.5-4 times
- Survival, % (mice [6]): 65%
- LD50 (mice [7]): > 100 mg
- EC50 (RAT STOMACH): 0.06 ± 0.01 µM
- EC50 (isolated rat aorta [8]; [13]): 0.68 ± 0.12 µM
- EC50 (isolated rat aorta [8]; [14]): 0.68 µM
- MDA level (%, relative to control), Aorta [9]: 44%
- MDA level (%, relative to control), Liver [9]: 77%
- MDA level (%, relative to control), Serum [9]: 85%
- effect on heart rate (heart rate): did not affect the heart rate
- tachyphylaxis (heart rate): no tachyphylaxis was observed
- EC50 (RAT UTERUS; [15]): 0.4 ± 0.1 µM
- Survival, % (mice [10]): 82%

Compound: CCCCC[C@H](O)/C=C/[C@H]1[C@H](O)CC(=NO)[C@@H]1CCCCCCC(=O)OC(CO[N+](=O)[O-])CO[N+](=O)[O-] [NITROPROX, 1,3-dinitroglycerol ester of 9-oxyiminoprostaglandin E1]
- HDL cholesterol (HDLC), changes of the contents (%, relative to control) [3]: 114%
- HDLC/TSC, changes (%, relative to control) [3]: 138%
- LDL cholesterol, changes of the contents (%, relative to control) [3]: 76%
- Total lipids, changes of the contents (%, relative to control) [3]: 92%
- Total serum cholesterol (TSC), changes of the contents (%, relative to control) [3]: 96%
- Triglicerides, changes of the contents (%, relative to control) [3]: 79%
- EC50 (isolated rat aorta [8]; [14]): 0.64 µM
- IC50 (human platelets [1]; Homo sapiens, Platelet, read-out: antiaggregating properties, IC50, ADP-induced aggregation of human platelets): 1.1 µM
- MDA level (%, relative to control), Aorta [9]: 32%
- MDA level (%, relative to control), Liver [9]: 104%
- MDA level (%, relative to control), Serum [9]: 101%

Compound: CCCCC[C@H](O)/C=C/[C@H]1C(=O)C[C@H](O)[C@@H]1C/C=C\CCCC(=O)OC(CO[N+](=O)[O-])CO[N+](=O)[O-] [1,3-dinitroglycerol ester of prostaglandin D2]
- inhibition at 100 µg/mL (human platelets [1]; Homo sapiens, Platelet, ADP (1×10M), dose 0.1 mg/ml of plasma): 50%

Compound: CCC=CCC=CCC=CCC=CC=CC(O)CCCC(=O)OCC(CO[N+](=O)[O-])O[N+](=O)[O-] (centres unmarked) [dinitroglycerol ester of 5-hydroxyeicosapentaenoic acid]
- inhibition of ADP induced human platelet aggregation (human platelets [1]): 30-50%

Compound: CCCCC[C@H](O)/C=C/[C@H]1[C@H](O)CC(=O)[C@@H]1CCCCCCC(=O)OC(CO[N+](=O)[O-])CO[N+](=O)[O-] [PROSTANIT, 1,3-dinitroglycerol ester of prostaglandin E1]
- HDL cholesterol (HDLC), changes of the contents (%, relative to control) [3]: 76%
- HDLC/TSC, changes (%, relative to control) [3]: 122%
- LDL cholesterol, changes of the contents (%, relative to control) [3]: 70%
- Total lipids, changes of the contents (%, relative to control) [3]: 72%
- Total serum cholesterol (TSC), changes of the contents (%, relative to control) [3]: 78%
- Triglicerides, changes of the contents (%, relative to control) [3]: 72%
- EC50 (isolated rat aorta [8]; relaxation, read-out: relaxing effect on the isolated rat aorta, EC50): 2.1 µM
- IC50 (human platelets [1]; Homo sapiens, Platelet, read-out: inhibition of ADP-induced aggregation of human platelets, IC50): 0.19 µM

Compound: CC/C=C\C/C=C\C/C=C\CCCCCCCC(=O)OC(CO[N+](=O)[O-])CO[N+](=O)[O-] [1,3-dinitroglycerol ester of 9,12,15-octadecatrienoic acid]
- inhibition of ADP induced human platelet aggregation (human platelets [1]): 30-50%

- EC50 (GUINEA PIG TRACHEA; [12]): 0.14 ± 0.08 µM
- EC50 (RAT STOMACH): 0.04 ± 0.015 µM
- EC50 (isolated rat aorta [8]; read-out: ISOLATED RAT AORTA contraction, EC50): 84 ± 1 µM
- EC50 (RAT UTERUS; [15]): 0.08 ± 0.016 µM
Compound: CCCCC[C@H](O)/C=C/[C@H]1[C@H](O)CC(=O)[C@@H]1C/C=C\CCCC(=O)O [PGE2, prostaglandin E2, reference compound]
- effect on isolated rat aorta (isolated rat aorta [8]): induced muscle contraction

- EC50 (RAT COLON): 0.13 ± 0.071 µM
- EC50 (RAT STOMACH): 0.05 ± 0.015 µM
- EC50 (RAT UTERUS; [16]): 0.11 µM
- EC50 (RAT UTERUS; [15]): 0.11 ± 0.04 µM
Compound: CCCCC[C@H](O)/C=C/[C@@H]1[C@@H](C/C=C\CCCC(=O)O)[C@@H](O)C[C@H]1O [PGF2α, prostaglandin F2α, reference compound]
- effect on isolated guinea pig trachea (GUINEA PIG TRACHEA; result in words): contraction
- effect on isolated rat aorta (isolated rat aorta [8]): contraction

Compound: CCCCC/C=C\C/C=C\C/C=C\C/C=C\CCCC(=O)O [arachidonic acid]
- effect on platelet aggregation (parent acid) (human platelets [11]): powerful inducer of platelet aggregation

Compound: CC/C=C\C/C=C\C/C=C\C/C=C\C/C=C\C/C=C\CCC(=O)OC(CO[N+](=O)[O-])CO[N+](=O)[O-] [1,3-dinitroglycerol ester of docosahexaenoic acid]
- inhibition of ADP induced human platelet aggregation (human platelets [1]): 30-50%

Compound: CCCCC[C@H](O)/C=C/[C@@H]1[C@@H](C/C=C\CCCC(=O)OC(CO[N+](=O)[O-])CO[N+](=O)[O-])[C@@H](O)C[C@H]1O [NITROPROST-F, 1,3-dinitroglycerol ester of prostaglandin F2α]
- EC50 (GUINEA PIG TRACHEA; [12]): 10 ± 1.5 µM
- EC50 (RAT COLON): 0.175 ± 0.07 µM
- effectiveness on rat colon (RAT COLON; [17]): as effective as prostaglandin F2α
- EC50 (RAT STOMACH): 0.13 ± 0.01 µM
- activity in rat stomach contraction (RAT STOMACH; [17]): lower activity
- EC50 (isolated rat aorta [8]; [13]): 0.54 ± 0.19 µM
- EC50 (RAT UTERUS; [16]): 0.009 µM
- EC50 (RAT UTERUS; [15]): 0.009 ± 0.0017 µM
- effectiveness in stimulating rat uterine contractions, times more than prostaglandin F2α (RAT UTERUS; relative to prostaglandin F2α): more than 10 times
